One series is described as follows: in vitro. The series is classed as cell-based. Particulars: human, hff cells. The method, then:
(§1) Human foreskin fibroblasts (HFF) are grown in a nutrient medium consisting of Eagle's minimal essential medium (EMEM) to which 10% fetal calf serum has been added.
(§2) The cell vitality is measured in an HFF cell culture using an MTT assay. The result is expressed as the TC50 value, which is the concentration at which 50% of the cells tested are still vital. In HFF cells, it is 435 μg/ml for the substances according to the invention.

For series [1], the system named is cytomegaloviruses (CMV laboratory strain AD169). Put plainly: ELISA of production of CMV late antigens in HFF cells. The class given is cell-based. Conditions: for therapeutic index: quotient TC50/IC50, HFF cells. The method, then:
Antiviral activity: cells and viruses employed
as §1
The CMV laboratory strain AD169 is used. The viruses are propagated in EMEM nutrient medium to which 4% fetal calf serum has been added (maintenance medium). The virus titer is established by determining so-called immediate early antigen forming units (IEFUs) which are formed in the maintenance medium (Gerna et al. (1992), Antiviral Res. Vol. 19: 333-345).
The antiviral effect of the substances on the propagation of cytomegaloviruses is determined by different parameters:
In an ELISA (enzyme-linked immunosorbent assay), the production of CMV late antigens is determined. […] The substances according to the invention have an IC50 value of 4 μg/ml±1 μg/ml.
(In general: In an ELISA, binding on a coated surface is turned into a signal by an enzyme label.)

For the next series, the system named is B cells. Particulars: in vitro; cited from earlier work.
For series [2] the following is noted: cited from earlier work.
In another series the test system is phospholipase D. Particulars: cited from earlier work.
The subject of series [3] is DTH (delayed type hypersensitivity) reaction. Conditions: intraperitoneal, mice; cited from earlier work.
The subject of a further series is lymphocyte proliferation. The series can be described thus: phytohemagglutinin stimulated lymphocyte proliferation ([3H]-thymidine). The class given is cell-based. The method, then: For a proliferation assay, lymphocyte cultures were started in mixed lymphocyte cultures (MLC), or with 1% phytohemagglutinin (PHA), in a total volume of 200 μl of culture medium. 18 to 20 hours before the measurement, 0.1 μCi methyl-[^3 H]-thymidine (NEN, Germany) was added. Radiolabeled DNA was harvested on filter membranes (Schleicher & Schull, Germany). The radioactivity was quantified with a scintillation counter (Zinsser, Germany). The sample PBL pertains to peripheral blood lymphocytes as a control.

The next series deals with T cells. Particulars: in vitro; cited from earlier work.
The next series has as its system antibody production. Conditions: intraperitoneal, mice; cited from earlier work.
The subject of a further series is phospholipase C. Conditions: cited from earlier work.
Series [4] concerns Human foreskin fibroblasts (HFF). Put plainly: in vitro. The series is classed as cell-based. Conditions: hff cells. The method, then: as §1, §2
The subject of series [5] is viral reverse transcriptases. Conditions: cited from earlier work.
The test system of a further series is hepatitis viruses. Particulars: literature, cell cultures; cited from earlier work.
The test system of the next series is human cytomegaloviruses. Particulars: literature; cited from earlier work.
In the next series the test system is Epstein-Barr viruses. Conditions: literature; cited from earlier work.
In another series the test system is viral DNA polymerases. Particulars: cited from earlier work.
A further series has as its system Herpes simplex viruses. Particulars: literature; cited from earlier work.
The subject of the next series is Varicella zoster viruses. Particulars: literature; cited from earlier work.
For series [6] the following is noted: mouse, in vivo; cited from earlier work.
The conditions of series [7]: literature; cited from earlier work.
[8] abbreviates: Human betaherpesvirus 5, AD169, production of CMV late antigens, ELISA, HFF cells, read-out: inhibitory concentration IC50.
Setting [9] is: production of CMV late antigens, ELISA, HFF cells.

Converted amounts (≈) assume the structure as drawn. “Also recorded” adds a separate entry of the source. Like-named read-outs stand apart in the source and are kept apart here.

The term CC50 denotes the concentration at which the toxic effect on the cells reaches its halfway point. Low readings indicate greater toxicity to the cells, high ones lower toxicity to the cells. The compound `O=C(O)C[C@@H](NCCN[C@H](CC(=O)O)C(=O)O)C(=O)O` [(R,R)-N,N'-ethylenediamine disuccinate] displayed a cytotoxic concentration (CC50) in “in vitro” of no less than 100 µg/mL. Moreover, in series [1] (setting [8]), the IC50 was determined as 41 µg/mL. The therapeutic index in series [1] is reported as no less than 2.2.
Taken in the same sequence, the figures for `O=C(O)C[C@H](NCCN[C@H](CC(=O)O)C(=O)O)C(=O)O` [(R,S)-N,N'-ethylenediamine disuccinate] were no less than 100 µg/mL, 46 µg/mL and no less than 2.2.
In the case of `O=C(O)CC[C@H](NCCN[C@@H](CCC(=O)O)C(=O)O)C(=O)O` [(S,S)-N,N'-ethylenediamine diglutamate], the cytotoxic concentration (CC50) in the series “in vitro” was no less than 100 µg/mL. In [1] (setting [8]), the IC50 is no less than 100 µg/mL.
As to `O=C(O)C[C@H](NCCN[C@@H](CC(=O)O)C(=O)O)C(=O)O` [(S,S)-N,N'-ethylenediamine disuccinate], in the series with B cells, the “blastogenesis of B cells” value is “suppressed”. The toxicity in mice entry in series [2] was “relatively low”. Moreover, the “inhibition of phospholipase D” value in the series on phospholipase D is listed as “inhibits”. The “DTH (delayed type hypersensitivity) reaction” value in series [3] was “suppressed”. Besides, in the series with lymphocyte proliferation, the immunosuppressive activity entry is reported as “inhibition of phytohemagglutinin stimulated lymphocyte proliferation”. Moreover, the “blastogenesis of T cells” value with T cells is reported as “suppressed”. In “in vitro”, the midpoint of cytotoxicity, the CC50, lay at 435 µg/mL. Further, in the series on antibody production, the antibody production result is recorded as “suppressed”. Also, the “inhibition of phospholipase C” value in the series on phospholipase C is given as “inhibits”. Moreover, the IC50 in series [1] (Human betaherpesvirus 5, AD169, HFF, activity against cytomegaloviruses, read-out: IC50) amounted to 4 µg/mL. This compound came in with a therapeutic index in series [1] of 109.
Regarding `CC(CN[C@@H](CCC(=O)O)C(=O)O)N[C@@H](CCC(=O)O)C(=O)O` (stereo partly drawn) [(S,S)-N,N'-propylenediamine diglutamate], the “toxic concentration TC50” value in [4] is no less than 100 µg/mL. Further, the “inhibitory concentration IC50” value in series [1] (setting [9]) is no less than 100 µg/mL.
In the case of `CC(CN[C@@H](CC(=O)O)C(=O)O)N[C@@H](CC(=O)O)C(=O)O` (stereo partly drawn) [(S,S)-N,N'-propylenediamine disuccinate], in series [4], the “toxic concentration TC50” value is no less than 100 µg/mL. In addition, the “inhibitory concentration IC50” value in [1] (setting [9]) was no less than 100 µg/mL.
In the case of `O=C(O)P(=O)(O)O` [Foscarnet], the “inhibition of viral reverse transcriptases” value in series [5] is “inhibition”. The “antiviral activity, hepatitis viruses” value in the series with hepatitis viruses was “selective activity”. Also, in the series on human cytomegaloviruses, the “antiviral activity, cytomegaloviruses” value is given as “virostatic effect” and the resistance of cytomegaloviruses entry is “more resistant”. The “antiviral activity, Epstein-Barr viruses” value with Epstein-Barr viruses was “selective activity”. Further, in the series on viral DNA polymerases, the “inhibition of viral DNA polymerases” value was “inhibition”. Also, the “antiviral activity, Herpes simplex viruses” value in the series with Herpes simplex viruses is “selective activity”. The “antiviral activity, Varicella zoster viruses” value in the series on Varicella zoster viruses is on record as “selective activity”.
Take `Nc1nc(O)c2ncn(COC(CO)CO)c2n1` [Ganciclovir]: the tumor development entry in series [6] was “observed to develop tumors”. For the same compound, the “toxicity / side effects” value in series [7] is on record as “high side-effect level; also recorded: leads to neutropenia”. Moreover, the resistance of cytomegaloviruses entry in the series on human cytomegaloviruses is recorded as “more resistant”. Moreover, the “antiviral activity, Epstein-Barr viruses” value with Epstein-Barr viruses was “effective”. In the series on Herpes simplex viruses, the “antiviral activity, Herpes simplex viruses” value is listed as “effective”. For the same compound, the “antiviral activity, Varicella zoster viruses” value in the series on Varicella zoster viruses was “effective”.
In the case of `CC(=O)N(O)CCCCCNC(=O)CCC(=O)N(O)CCCCCNC(=O)CCC(=O)N(O)CCCCCN` [desferrioxamine], the “toxicity / side effects” value in series [7] is recorded as “low toxicity”. Besides, the “antiviral activity, cytomegaloviruses” value in the series with human cytomegaloviruses was “successfully used”. In addition, in “in vitro”, the 50% cytotoxic concentration (CC50) is 12 µg/mL (≈ 21.4 µM). In addition, the “antiviral activity, Epstein-Barr viruses” value in the series with Epstein-Barr viruses is reported as “successfully used”. Moreover, the “antiviral activity, Herpes simplex viruses” value with Herpes simplex viruses was “successfully used”. In the series with Varicella zoster viruses, the “antiviral activity, Varicella zoster viruses” value is listed as “successfully used”. The IC50 in series [1] (setting [8]) was found to be 4.1 µg/mL (≈ 7.31 µM). This compound returned a therapeutic index in series [1] of 3.
Compound `O=C(O)CN(CCN(CC(=O)O)CC(=O)O)CCN(CC(=O)O)CC(=O)O` [diethylenetriaminepentaacetic acid] displayed a CC50 in “in vitro” of 123 µg/mL (≈ 313 µM). Besides, the IC50 in series [1] (setting [8]) worked out at 4 µg/mL (≈ 10.2 µM). In addition, the therapeutic index in series [1] is on record as 31.
Take (R,R)-N,N'-propylenediamine disuccinate: the “toxic concentration TC50” value in series [4] was no less than 100 µg/mL. Also, the “inhibitory concentration IC50” value in series [1] (setting [9]) is no less than 100 µg/mL.
